The values below come from US12508270B2, “Treatment of behavioral impairment in developmental and epileptic encephalopathy” (Harmony Biosciences Management, Inc., priority 2019, dated 2025).

The test system of the test is child and adolescent epilepsy patients with developmental and epileptic encephalopathies (DEE). Briefly: Qualitative caregiver feedback at Week 26. In kind it is in vivo, human. Conditions: transdermal CBD. From the text:
Qualitative assessment of improvement, worsening, or no change for the patient and family, such as but not limited to, daily activities, school attendance and alertness. In the examples, clinicians were asked to capture qualitative caregiver feedback at Week 26 with the following questions asked: (1) “Has anything improved for [patient name] and your family since [patient name] has been using the gel?”; (2) “Has anything got worse since for [patient name] and your family since [patient name] has been using the gel?”; and (3) “Let me just ask about a few specific things: Daily activities e.g. school attendance? If so how? Alertness? If so how?”.
Parents/caregivers were instructed to capture seizure frequency and type, and skin irritation scores, within daily diaries. Parents/caregivers also completed: • (1) The University of Washington Caregiver Stress Scale at Day 1, Week 14, and Week 26. • (2) Epilepsy and Learning Disabilities Quality of Life scale (ELDQOL—modified) at Day 1, Week 14 and Week 26. • (3) Sleep Disturbance Scale for Children (SDSC) at Day 1, Week 14 and Week 26. • (4) Vineland Adaptive Behavior Scale-3 (VABS-3) at Day 1 and Week 26. • (5) Parents/caregivers also completed a daily Likert-type “good day/bad day” questionnaire. • (6) Qualitative Caregiver Feedback at Week 26. Objectives […]

Turning to `C=C(C)C1CCC(C)=CC1c1c(O)cc(CCCCC)cc1O` (stereo not shown) [CBD, 2-[3-methyl-6-(1-methylethenyl)-2-cyclohexen-1-yl]-5-pentyl-1,3-benzenediol], the “qualitative assessments by caregivers” value is reported as “improved many behavioral problems”.
